Consider twelve compounds from publication PMC7435928, “Preclinical Evaluation of NHS-Activated Gold Nanoparticles Functionalized with Bombesin or Neurotensin-Like Peptides for Targeting Colon and Prostate Tumours” (Molecules, 2020).

Peptide text beside a SMILES is read from it. * marks the point of attachment. DOTA = O=C(O)CN1CCN(CC(=O)O)CCN(CC(=O)*)CCN(CC(=O)O)CC1

The nature of data set [1]: in vivo. More on the design: species or system mice. As to conditions: male, NU/J athymic nude, mouse, 3.81 MBq, total radioactivity, Biodistribution. On the procedure: (§1) All experiments were conducted according to the guidelines of EU Directive 2010/63 approved by The Romanian National Sanitary Veterinary and Food Safety Authority (NSVFSA, approval no. 442/25.02.2019). Athymic nude male mice (NU/J, 8–10 weeks old) were obtained from The Jackson Laboratory (Bar Harbor, ME, USA). Animals were housed in ventilated cages with a 12-h light-dark cycle and receive food and water ad libitum. Colon/prostate tumours were induced 7–10 days prior the experiments by a subcutaneous injection of 1 × 10^6 HT-29/DU-145 cancer cells. All injected animals were monitored daily until an ideal size of tumour for biodistribution was reached (60–100 mm^3). 3.81 ± 0.51 MBq of ^68Ga-labelled tracers were retro-orbital injected into the ophthalmic venous sinus after intraperitoneal anesthesia with 0.1 mL ketamine/xylazine/acepromazine cocktail: 7.5 mg/mL ketamine (Narkamon Bio, Bioveta, Cluj-Napoca, Romania), 1.5 mg/mL xylazine (Narcoxyl 2, MSD Animal Health, Madison, NJ, USA) and 0.25 mg/mL acepromazine (Sedam, SC Pasteur Filiala Filipesti SRL, Filipestii de Padure, Romania). All animals were sacrificed at 30 min p.i. and the organs were weighted and measured in a dose calibrator (Biodex Medical Systems Inc., Shirley, NY, USA). The biodistribution was calculated as percent of injected dose per gram of organ (% ID/g) ± standard deviation (SD, n = 4 for each injected tracer).
(§2) All the data were expressed as means ± standard deviation (n = 4). Comparison of results among the groups (% ID/g vs. tracers, % ID/g vs. tracers and organs, % ID/g vs. tracers and tumoral cells), was carried out by one-way analysis of variance (ANOVA) and Tukey post-hoc analysis using SPSS v26 (IBM, Armonk, NY, USA) The results were considered significant for a p-value less than 0.05.

A short description of data set [2]: in vivo. To be noted: male, NU/J athymic nude, mouse, 3.81 MBq, total radioactivity, Biodistribution. Set-up: species or system mice. On the procedure: as §1, §2
The source holds these as a separate data set.

Data set [3] has as its target neurotensin NTRS1, NTRS2 and NTRS3 receptors. Set-up: method as in printed for the value. As to conditions: target receptors as in Table 3 (NTRS1, NTRS2; SR 14294 also NTRS3); not measured in this paper, ref not given; cited from earlier work.
Data set [4] is described as follows: Dynamic light scattering of peptide-functionalized gold nanoparticles. Format: physicochemical. To be noted: cold peptide-functionalized AuNPs, 25 °C; for Hydrodynamic Diameter: DLS, Nano ZS, 633 nm, 90°; for Zeta Potential: DLS/zetasizer. An excerpt:
The reaction between DOTA-peptides and NHS-activated PEG-AuNPs was monitored by detecting changes in nanoparticles size as a peptide layer is formed around nanoparticles. The initial hydrodynamic diameter of bare PEG-AuNPs was 42.56 nm, and after functionalization increased to approximately 73 nm (Figure 1). The electric potential at the boundary of the double layer (counter ions and Stern layer) of nanoparticles, also known as zeta potential is higher than −44 mV. Thus, the peptide-functionalized nanoparticles have sufficient repulsive force to anticipate a good physical stability.
The size distribution and zeta potential of cold peptide functionalized-gold nanoparticles were measured using a Nano ZS zetasizer system (Malvern Instruments, Malvern, UK). Measurement parameters were as follows: a laser wavelength of 633 nm (He-Ne), measurement angle of 90°, measurement temperature of 25 °C, and refractive index of medium n = 1.330.

Data set [5] relates to HT-29 colon cancer cells. In words: Uptake and retention, rotating radioimmunoassay (LigandTracer Yellow). In kind it is cell-based, human. As to conditions: HT-29 cells, 2–3 nmol peptide, real-time signal during incubation. The procedure: The binding kinetic (uptake and retention) of the ^68Ga-labelled peptides and peptide-functionalized gold nanoparticles we investigated using rotating radioimmunoassay. 2–3 nmol of each peptide labelled with ^68Ga was incubated on DU-145 prostate and HT-29 colon cancer cells. After uptake measurement, the radioactive medium was removed and the cells were washed with fresh DMEM-F12 medium. The cell retention is measured after this process, during each rotation of the Petri dish support the detector is measuring only the signal coming from the tracers bound to cells. The results are reported as measured signal during the time of analysis (where t = 0 min is the time of incubation), as illustrated in Figure 3. […]
The retention level is illustrated after the indicator arrows and reflects the percent of activity retained by the cells from the maximum counted during uptake, after hot medium removal and cells washing step. […]
Cells were maintained in culture according to the protocol provided by the depositor. […] Cells at passage 6–9 and were counted before seeding for experimentation by optical microscopy using a Burker-Turk counting chamber, and cell viability was assessed by the trypan blue exclusion test. […]

Data set [6] has as its system human colon carcinoma HT-29 cells. In words: MTS reduction test (cytotoxicity). As to conditions: free peptides 1–4 nmol/mL, 48 h, triplicate. For orientation: Tetrazolium dyes change colour on reduction, which living cells bring about.
Protocol: (§3) The MTS reduction test was used to evaluate the number of metabolically active cells in culture, under various experimental conditions.
(§4) Briefly, cells were cultivated in 96-well plates (3 × 10^4 CRL9855 cells/mL, 10 × 10^4 HT-29 cells/mL and 5 × 10^4 DU-145 cells/mL) in a total volume of 100 μL. Adherent cells were left for 24 h to adhere to the culture well. Thereafter, NPs and peptides were added at various concentrations and cells were cultivated for 48 h. Non-treated cells were considered as control (CTRL). For background assessment culture medium, NPs and peptides were cultivated in absence of cells, considering that NPs might interfere with the spectrophotometric measurement. All samples were cultivated in triplicate. At the end of the incubation time, 20 μL of MTS reagent were added and samples were cultivated for another 1–3 h until the reaction color was developed. The OD at 490 nm was measured in each sample using a Tecan Sunrise ELISA reader with Magellan universal reader control and data analysis software (Tecan Group Ltd., Mannedorf, Switzerland). Final OD in cellular samples was calculated by subtracting the OD of the corresponding background samples.
Data set [7] has as its system human prostate carcinoma DU-145 cells. In words: MTS reduction test (cytotoxicity). As to conditions: free peptides 1–4 nmol/mL, 48 h, triplicate.
Protocol: as §3, §4
Data set [8] relates to human proliferating CRL9855 monocytes. Nature of the data set: MTS reduction test (cytotoxicity). To be noted: free peptides 1–4 nmol/mL, 48 h, triplicate.
Protocol: as §3, §4

With `CC[C@H](C)[C@H](NC(=O)[C@H](Cc1ccc(O)cc1)NC(=O)[C@@H]1CCCN1C(=O)[C@@H](NC(=O)[C@H](CCCCN)NC(=O)CN1CCN(CC(=O)O)CCN(CC(=O)O)CCN(CC(=O)O)CC1)[C@@H](C)CC)C(=O)N[C@@H](CC(C)C)C(=O)O` [^68Ga-DOTA-NMN, metal not drawn] ({DOTA}-KIPYIL-OH; C-terminus assumed), the tissue uptake – broadly, the percentage of the injected dose found per gram of tissue – at 0.5 h worked out at 0.16 ± 0.02 %ID/g in data set [1] (Bone); 0.04 ± 0.01 %ID/g in data set [1] (Brain); 1 ± 0.42 %ID/g in data set [1] (Heart); 21.1 ± 1.97 %ID/g in data set [1] (Kidneys); 2.37 ± 0.77 %ID/g in data set [1] (Lungs); 0.39 ± 0.05 %ID/g in data set [1] (Lymph Node). Besides, the tissue uptake at 0.5 h in data set [1] (Spleen) is 0.35 ± 0.02 %ID/g; in data set [1] (Tumour (colon)), 2.02 ± 0.02 %ID/g; in data set [2] (Heart), 0.99 ± 0.26 %ID/g; in data set [2] (Kidneys), about 60 %ID/g; in data set [2] (Lungs), 2.37 ± 0.5 %ID/g; in data set [2] (Pancreas) it was 0.58 ± 0.02 %ID/g. Besides, the tissue uptake at 0.5 h in data set [2] (Tumour (prostate)) came out at 1.77 ± 0.5 %ID/g.

For `COc1cccc(OC)c1-c1cc(C(=O)NC2(C(=O)O)C3CC4CC(C3)CC2C4)nn1-c1ccc(C(=O)N(C)CCCN(C)C)cc1C(C)C` (stereo not drawn) [SR 14294], the Kd – broadly, a measure of binding affinity in units of concentration – in data set [3] is 0.01 µM.

In the case of “DOTA-NMN-AuNP: cold DOTA-neuromedin N-functionalized gold nanoparticles”, in data set [4], the “Hydrodynamic Diameter” value is on record as 73.29 nm and the “Zeta Potential” value is given as −49.6 mV.

In the case of “^68Ga-DOTA-NMB-AuNP: NHS-activated PEG-gold nanoparticles functionalized with ^68Ga-DOTA-Neuromedin B”, the Uptake profile result in data set [5] was “up and down trend”.

Turning to `CSCC[C@H](NC(=O)[C@H](CC(C)C)NC(=O)[C@H](Cc1c[nH]cn1)NC(=O)CNC(=O)[C@@H](NC(=O)[C@H](C)NC(=O)[C@H](Cc1c[nH]c2ccccc12)NC(=O)[C@H](CCC(N)=O)NC(=O)CCOCCOCCOCCOCCNC(=O)CN1CCN(CC(=O)O)CCN(CC(=O)O)CCN(CC(=O)O)CC1)C(C)C)C(N)=O` [^68Ga-DOTA-PEG(4)-BBN(7-14), metal not drawn], the tissue uptake at 0.5 h in data set [1] (Blood) came out at 6.42 ± 0.27 %ID/g; in data set [1] (Bone), 0.75 ± 0.06 %ID/g; in data set [1] (Kidneys), 18.7 ± 0.67 %ID/g; in data set [1] (Lymph Node), 1.1 ± 0.45 %ID/g; in data set [1] (Tumour (colon)), 3.31 ± 0.76 %ID/g; in data set [2] (Blood), 6.48 ± 1.53 %ID/g. The tissue uptake at 0.5 h was determined as 18 ± 3.78 %ID/g in data set [2] (Kidneys) and 3.78 ± 0.27 %ID/g in data set [2] (Tumour (prostate)).

Turning to “^68Ga-DOTA-NT-AuNP: NHS-activated PEG-gold nanoparticles functionalized with ^68Ga-DOTA-NT”, in data set [4], the “Hydrodynamic Diameter” value was found to be 72.36 nm.

For `COc1cccc(OC)c1-c1cc(C(=O)NC2(C(=O)O)C3CC4CC(C3)CC2C4)nn1-c1ccnc2cc(Cl)ccc12` (stereo not drawn) [SR 48692], in data set [3], the Kd is 0.015 µM.

For the compound `CSCC[C@H](NC(=O)[C@H](Cc1ccccc1)NC(=O)[C@H](Cc1c[nH]cn1)NC(=O)CNC(=O)[C@@H](NC(=O)[C@H](C)NC(=O)[C@H](Cc1c[nH]c2ccccc12)NC(=O)[C@H](CC(C)C)NC(=O)[C@H](CC(N)=O)NC(=O)CNC(=O)CN1CCN(CC(=O)O)CCN(CC(=O)O)CCN(CC(=O)O)CC1)[C@@H](C)O)C(N)=O` [DOTA-NMB], the “Effect on MTS reduction” value in data set [6], in data set [7] and in data set [8] was “do not alter MTS reduction” in each case.

With `CSCC[C@H](NC(=O)[C@H](Cc1ccccc1)NC(=O)[C@H](Cc1c[nH]cn1)NC(=O)CNC(=O)[C@@H](NC(=O)[C@H](C)NC(=O)[C@H](Cc1c[nH]c2ccccc12)NC(=O)[C@H](CC(C)C)NC(=O)[C@H](CC(N)=O)NC(=O)CNC(=O)CN1CCN(CC(=O)O)CCN(CC(=O)O)CCN(CC(=O)O)CC1)[C@@H](C)O)C(N)=O` [^68Ga-DOTA-NMB, metal not drawn], the tissue uptake at 0.5 h was 0.1 ± 0.07 %ID/g in data set [1] (Bone), 1.73 ± 0.08 %ID/g in data set [1] (Tumour (colon)), 1.36 ± 0.07 %ID/g in data set [2] (Pancreas) and 2.54 ± 0.42 %ID/g in data set [2] (Tumour (prostate)).

In the case of “DOTA-NMB-AuNP: cold DOTA-neuromedin B-functionalized gold nanoparticles”, in data set [4], the “Hydrodynamic Diameter” value is 72.18 nm and the “Zeta Potential” value was −47.3 mV.

Turning to `Cc1ccc(S(=O)(=O)Nc2ccc3c(c2)c(C(=O)C(F)(F)F)cn3CC(=O)N[C@@H](CC(C)C)C(=O)O)cc1` [NTRC 824], in data set [3], the Kd is 0.038 µM.

In the case of “DOTA-NT-AuNP: cold DOTA-neurotensin-functionalized gold nanoparticles”, in data set [4], the “Hydrodynamic Diameter” value is on record as 72.36 nm and the “Zeta Potential” value was −44.4 mV.
